Patent US9862697B2, “pH-sensitive fluorescent sensors for biological amines” (The Curators of the University of Missouri, priority 2013, dated 2018)
Marks after values point to notes of the source that are not given here.

Key:
[1] = Spectroscopic properties of unbound sensors; assay type: physicochemical; parameters: λmax (GH) / λmax (G-): unit not given here; details: for λem (ex: 488 nm): excitation 488 nm; for λmax (G-) / λmax (GH): unbound sensor; for λmax (G-): deprotonated form G-; for λmax (GH): protonated form GH
Procedure: (§1) The spectroscopic properties of several exemplary inventive sensors have been examined, along with the starting compound 1, as 7-hydroxycoumarins are well known for their pH-sensitivity. First, the acidity of the sensors was discerned by performing pH titrations where aliquots of aqueous HCl were added to a buffered solution of the sensor and the absorbance and fluorescence were monitored. The pKa of the pH-sensitive unit is related to the donating ability of the sulfonamide substituent. ES517 has a dimethylamino-substituent on the sulfonamide which is the best electron-donor into the sulfonyl motif. This makes deprotonation of the N—H proton located at the 7-position of the coumarin core the least favorable and therefore the least acidic. The pH and fluorescence intensity data were fit to a pH isotherm and the pKa was determined to be 6.3. As the donating ability of the sulfonamide substituent into the sulfonyl motif worsened, the acidity of the N—H proton located at the 7-position of the coumarin core increased. The aromatic substituents are the least electron donating substituents into the sulfonyl motif which explains the greater acidity. By using a single coupling reaction, the pKa of the sensor may be tuned to fit the parameters of the experiment.
(§2) Table 1 summarizes the spectroscopic properties of the tested compounds in pH varying environments, mimicking the vesicular and synaptic cleft conditions.

[2] = Fluorescence at pH 7.4 vs 5.0 of sensor saturated with glutamate
Procedure: Next, the sensor was saturated with 300 mM glutamate in order to mimic vesicular conditions. The fluorescence intensity of the bound complex was then monitored between the pH values of 5 and 7.4, the acidities associated with the synaptic vesicle and synaptic cleft, respectively. An excitation wavelength of 488 nm was used because it is far enough to the red to ensure that only the bound, deprotonated sensor was excited. It is also a common wavelength used in fluorescence microscopy cell studies. The fluorescence intensity increased for all sensors upon basification from pH 5 to 7.4, however the sensors with the highest pKa values gave the greatest enhancements.
as §2

[3] = pH titration of sensor (absorbance and fluorescence monitored), pKa; assay type: physicochemical; details: buffered solution of the sensor; unbound sensor; pH and fluorescence intensity data fit to a pH isotherm
Procedure: as §1

[4] = Binding study (fluorescence titration) of ES517 with dopamine
[5] = Binding study (fluorescence titration) of ES517 with glutamate
Procedure: While low, this binding constant is believed to be preferred for reversible binding due to the high millimolar concentration of glutamate in a vesicle (˜300 mM).

[6] = pKa and absorbance of the bound sensor (ES517 saturated with glutamate) over a wide pH range; assay type: physicochemical
Description: ES517 was saturated with glutamate and the spectroscopic properties measured over a wide pH range. The protonated form of the bound sensor (FIG. 4, structure B) absorbed at 368 nm. […] The 428 nm band was assigned to the unbound deprotonated form of the sensor (structure C). The 458 nm band therefore represents the bound, deprotonated sensor (structure D). The plot of pH vs. intensity was fit to a pH isotherm and the pKa determined to be 6.3.

[7] = Binding study (fluorescence titration) of ES517 with serotonin
[8] = Binding study (fluorescence titration) of ES517 with glycine
[9] = Fluorescence at pH 7.4 vs 5.0 of ES517 saturated with dopamine; details: ES517 20 μM saturated with 100 mM dopamine
Description: (§3) The ES517 was further analyzed for binding and spectroscopic properties with the common neurotransmitters other than glutamate released upon exocytosis. […] The aromatic neurotransmitters dampened the fluorescence turn-on response of the inventive sensors due to the electron-rich nature of catecholamines (norepinephrine and dopamine) and indoleamines (serotonin).

[10] = Fluorescence at pH 7.4 vs 5.0 of ES517 saturated with norepinephrine; details: ES517 20 μM saturated with 100 mM norepinephrine
Description: as §3

[11] = Binding study (fluorescence titration) of ES517 with norepinephrine
[12] = Binding study (fluorescence titration) of ES517 with GABA
[13] = Fluorescence at pH 7.4 vs 5.0 of ES517 saturated with glycine; details: ES517 20 μM saturated with 300 mM glycine
Description: as §3

[14] = Fluorescence at pH 7.4 vs 5.0 of ES517 saturated with GABA; details: ES517 20 μM saturated with 300 mM GABA
Description: as §3

[15] = sensor saturated with 0.3M glutamate, intensities monitored at pH 5.0 and 7.4
[16] = ES517 20 μM, buffered, pH 7.4, ±10% error
[17] = fluorescence enhancement upon binding at pH 7.4, λem = 517 nm

CS(=O)(=O)Nc1ccc2c(-c3ccccc3)c(C=O)c(=O)oc2c1
λem (ex: 488 nm) [1]: 489 nm
λmax (G-) [1]: 420
λmax (GH) [1]: 365
IpH 7.4/IpH 5 [2, 15]: 5.5
pKa [3]: 5.9

O=Cc1c(-c2ccccc2)c2ccc(NS(=O)(=O)c3cccs3)cc2oc1=O
λem (ex: 488 nm) [1]: 494 nm
λmax (G-) [1]: 416
λmax (GH) [1]: 366
IpH 7.4/IpH 5 [2, 15]: 2.5
pKa [3]: 5.2

O=Cc1c(-c2ccccc2)c2ccc(O)cc2oc1=O
λem (ex: 488 nm) [1]: 468 nm
λmax (G-) [1]: 420
λmax (GH) [1]: 368
IpH 7.4/IpH 5 [2, 15]: 3.3
pKa [3]: 5.8

CN(C)S(=O)(=O)Nc1ccc2c(-c3ccccc3)c(C=O)c(=O)oc2c1 [ES517]
λem (ex: 488 nm) [1]: 498 nm
λmax (G-) [1]: 419
λmax (GH) [1]: 368
IpH 7.4/IpH 5 ([2]; ES517 20 μM saturated with 300 mM glutamate, fluorescence at pH 7.4 vs. 5.0): 12^d
IpH 7.4/IpH 5 [2, 15]: 12
Ka [4, 16]: 55 M⁻¹
Isat/I0 [4, 17]: 10
Ka ([5]; glutamate, ES517 20 μM, 50 mM bis-tris propane, 50 mM Na2S2O3, 1% DMSO, pH 7.4, ±10% error): 8.6 M⁻¹
Isat/I0 ([5]; glutamate, fluorescence enhancement upon binding at pH 7.4, Isat from theoretical max of binding isotherm, λem = 517 nm): 12
fluorescence enhancement upon binding to glutamate ([5]; titration with glutamate, excitation 488 nm): 12 fold
absorbance of protonated form of the bound sensor (structure B) [6]: 368 nm
absorbance band of bound, deprotonated sensor (structure D) ([6]; upon deprotonation): 458 nm
absorbance band of unbound deprotonated form of the sensor (structure C) ([6]; upon deprotonation): 428 nm
Ka [7, 16]: 54 M⁻¹
Isat/I0 [7, 17]: 0.5
Ka [8, 16]: 9.2 M⁻¹
Isat/I0 [8, 17]: 25
pKa [3]: 6.3
IpH 7.4/IpH 5 [9]: 5.5 ^e
IpH 7.4/IpH 5 [10]: 5.3 ^e
Ka [11, 16]: 49 M⁻¹
Isat/I0 [11, 17]: 14
Ka [12, 16]: 8.3 M⁻¹
Isat/I0 [12, 17]: 27
IpH 7.4/IpH 5 [13]: 10 ^d
IpH 7.4/IpH 5 [14]: 11 ^d
